From ChEMBL document CHEMBL3885881, “DrugMatrix”

Species on record: Rattus norvegicus
Experiment: DrugMatrix - Regimen: Daily Repeat
Assay type: toxicity, organism-based, Sprague-Dawley
Design: regimen Daily Repeat, gender Male, age 6-8 weeks
Conditions: in vivo, iv, vehicle 100 % SALINE; for ABSOLUTE BASOPHIL / ABSOLUTE EOSINOPHIL / ABSOLUTE LYMPHOCYTE / ABSOLUTE MONOCYTE / ABSOLUTE SEGMENTED NEUTROPHIL / BASOPHIL / EOSINOPHIL / ERYTHROCYTE COUNT / HEMATOCRIT / HEMOGLOBIN / LEUKOCYTE COUNT / LYMPHOCYTE / MEAN CORPUSCULAR HEMOGLOBIN / MEAN CORPUSCULAR HEMOGLOBIN CONCENTRATION / MEAN CORPUSCULAR VOLUME / MONOCYTE / NEUTROPHIL / NUCLEATED RED BLOOD CELLS / PLATELET COUNT: tissue Blood; for ALANINE AMINOTRANSFERASE / ALBUMIN / ALKALINE PHOSPHATASE / ASPARTATE AMINOTRANSFERASE / BLOOD UREA NITROGEN / CARBON DIOXIDE / CHLORIDE / CHOLESTEROL / CREATINE PHOSPHOKINASE / CREATININE / GLUCOSE / LACTATE DEHYDROGENASE / LIPASE / PHOSPHORUS / POTASSIUM / SODIUM / TOTAL BILIRUBIN / URIC ACID / TOTAL PROTEIN: tissue Plasma
[1] = 400 mg/kg, 72 h, dose level Low, time 3 day
[2] = 400 mg/kg, 120 h, dose level Low, time 5 day
[3] = 1200 mg/kg, 72 h, dose level M1, time 3 day
[4] = 1200 mg/kg, 120 h, dose level M1, time 5 day
[5] = 1800 mg/kg, 72 h, dose level High, time 3 day

NC(CO)(CO)CO [TROMETHAMINE]
ABSOLUTE BASOPHIL [1]: 0 CELLS/uL
ABSOLUTE EOSINOPHIL [1]: 233.33 CELLS/uL
ABSOLUTE LYMPHOCYTE [1]: 15317.33 CELLS/uL
ABSOLUTE MONOCYTE [1]: 347.33 CELLS/uL
ABSOLUTE SEGMENTED NEUTROPHIL [1]: 1468.67 CELLS/uL
BASOPHIL [1]: 0%
EOSINOPHIL [1]: 1.33%
ERYTHROCYTE COUNT [1]: 5.74 x10E6/uL
HEMATOCRIT [1]: 36.9%
HEMOGLOBIN [1]: 13.67 G/DL
LEUKOCYTE COUNT [1]: 17.37 x10E3/uL
LYMPHOCYTE [1]: 88.33%
MEAN CORPUSCULAR HEMOGLOBIN [1]: 23.87 pg
MEAN CORPUSCULAR HEMOGLOBIN CONCENTRATION [1]: 37.03 G/DL
MEAN CORPUSCULAR VOLUME [1]: 64.37 fL
MONOCYTE [1]: 2%
NEUTROPHIL [1]: 8.33%
NUCLEATED RED BLOOD CELLS [1]: 0 /100WBC
PLATELET COUNT [1]: 1402.67 x10E3/uL
ALANINE AMINOTRANSFERASE [1]: 55.67 u/L
ALBUMIN [1]: 4.27 G/DL
ALKALINE PHOSPHATASE [1]: 354.33 u/L
ASPARTATE AMINOTRANSFERASE [1]: 97 u/L
BLOOD UREA NITROGEN [1]: 17.67 mg/dL
CARBON DIOXIDE [1]: 20 mmol/L
CHLORIDE [1]: 107 MEQ/L
CHOLESTEROL [1]: 81.67 mg/dL
CREATINE PHOSPHOKINASE [1]: 249.33 u/L
CREATININE [1]: 0.23 mg/dL
GLUCOSE [1]: 184.67 mg/dL
LACTATE DEHYDROGENASE [1]: 286.33 u/L
LIPASE [1]: 9.33 u/L
PHOSPHORUS [1]: 14.23 mg/dL
POTASSIUM [1]: 7.13 MEQ/L
SODIUM [1]: 150.03 MEQ/L
TOTAL BILIRUBIN [1]: 0.23 mg/dL
URIC ACID [1]: 2.83 mg/dL
ABSOLUTE BASOPHIL [2]: 0 CELLS/uL
ABSOLUTE EOSINOPHIL [2]: 193.67 CELLS/uL
ABSOLUTE LYMPHOCYTE [2]: 13973.67 CELLS/uL
ABSOLUTE MONOCYTE [2]: 314 CELLS/uL
ABSOLUTE SEGMENTED NEUTROPHIL [2]: 1218.67 CELLS/uL
BASOPHIL [2]: 0%
EOSINOPHIL [2]: 1.33%
ERYTHROCYTE COUNT [2]: 5.88 x10E6/uL
HEMATOCRIT [2]: 36.53%
HEMOGLOBIN [2]: 13.73 G/DL
LEUKOCYTE COUNT [2]: 15.7 x10E3/uL
LYMPHOCYTE [2]: 89%
MEAN CORPUSCULAR HEMOGLOBIN [2]: 23.33 pg
MEAN CORPUSCULAR HEMOGLOBIN CONCENTRATION [2]: 37.6 G/DL
MEAN CORPUSCULAR VOLUME [2]: 62.13 fL
MONOCYTE [2]: 2%
NEUTROPHIL [2]: 7.67%
NUCLEATED RED BLOOD CELLS [2]: 0 /100WBC
PLATELET COUNT [2]: 1369.33 x10E3/uL
ALANINE AMINOTRANSFERASE [2]: 59 u/L
ALBUMIN [2]: 4.13 G/DL
ALKALINE PHOSPHATASE [2]: 352 u/L
ASPARTATE AMINOTRANSFERASE [2]: 100.33 u/L
BLOOD UREA NITROGEN [2]: 18 mg/dL
CARBON DIOXIDE [2]: 26.67 mmol/L
CHLORIDE [2]: 105 MEQ/L
CHOLESTEROL [2]: 63.33 mg/dL
CREATINE PHOSPHOKINASE [2]: 312.67 u/L
CREATININE [2]: 0.17 mg/dL
GLUCOSE [2]: 152 mg/dL
LACTATE DEHYDROGENASE [2]: 490 u/L
LIPASE [2]: 8 u/L
PHOSPHORUS [2]: 13.27 mg/dL
POTASSIUM [2]: 6.29 MEQ/L
SODIUM [2]: 147.27 MEQ/L
TOTAL BILIRUBIN [2]: 0.13 mg/dL
TOTAL PROTEIN [2]: 6.23 G/DL
URIC ACID [2]: 1.6 mg/dL
ABSOLUTE BASOPHIL [3]: 0 CELLS/uL
ABSOLUTE EOSINOPHIL [3]: 114.67 CELLS/uL
ABSOLUTE LYMPHOCYTE [3]: 5662 CELLS/uL
ABSOLUTE MONOCYTE [3]: 0 CELLS/uL
ABSOLUTE SEGMENTED NEUTROPHIL [3]: 823.33 CELLS/uL
BASOPHIL [3]: 0%
EOSINOPHIL [3]: 1.67%
ERYTHROCYTE COUNT [3]: 4.96 x10E6/uL
HEMATOCRIT [3]: 32.13%
HEMOGLOBIN [3]: 12.23 G/DL
LEUKOCYTE COUNT [3]: 6.6 x10E3/uL
LYMPHOCYTE [3]: 86%
MEAN CORPUSCULAR HEMOGLOBIN [3]: 24.7 pg
MEAN CORPUSCULAR HEMOGLOBIN CONCENTRATION [3]: 38.17 G/DL
MEAN CORPUSCULAR VOLUME [3]: 64.73 fL
MONOCYTE [3]: 0%
NEUTROPHIL [3]: 12.33%
NUCLEATED RED BLOOD CELLS [3]: 0 /100WBC
PLATELET COUNT [3]: 1106 x10E3/uL
ALANINE AMINOTRANSFERASE [3]: 48.67 u/L
ALBUMIN [3]: 4.2 G/DL
ALKALINE PHOSPHATASE [3]: 396.33 u/L
ASPARTATE AMINOTRANSFERASE [3]: 124 u/L
BLOOD UREA NITROGEN [3]: 14.67 mg/dL
CARBON DIOXIDE [3]: 28 mmol/L
CHLORIDE [3]: 101.67 MEQ/L
CHOLESTEROL [3]: 82 mg/dL
CREATINE PHOSPHOKINASE [3]: 177.33 u/L
CREATININE [3]: 0.16 mg/dL
GLUCOSE [3]: 166.33 mg/dL
LACTATE DEHYDROGENASE [3]: 103 u/L
LIPASE [3]: 8.33 u/L
PHOSPHORUS [3]: 11.1 mg/dL
POTASSIUM [3]: 5.72 MEQ/L
SODIUM [3]: 148.3 MEQ/L
TOTAL BILIRUBIN [3]: 0.1 mg/dL
TOTAL PROTEIN [3]: 6.23 G/DL
URIC ACID [3]: 0.7 mg/dL
ABSOLUTE BASOPHIL [4]: 0 CELLS/uL
ABSOLUTE EOSINOPHIL [4]: 321 CELLS/uL
ABSOLUTE LYMPHOCYTE [4]: 13922 CELLS/uL
ABSOLUTE MONOCYTE [4]: 0 CELLS/uL
ABSOLUTE SEGMENTED NEUTROPHIL [4]: 2357 CELLS/uL
BASOPHIL [4]: 0%
EOSINOPHIL [4]: 2%
ERYTHROCYTE COUNT [4]: 5.71 x10E6/uL
HEMATOCRIT [4]: 35.9%
HEMOGLOBIN [4]: 13.45 G/DL
LEUKOCYTE COUNT [4]: 16.6 x10E3/uL
LYMPHOCYTE [4]: 84%
MEAN CORPUSCULAR HEMOGLOBIN [4]: 23.6 pg
MEAN CORPUSCULAR HEMOGLOBIN CONCENTRATION [4]: 37.45 G/DL
MEAN CORPUSCULAR VOLUME [4]: 62.95 fL
MONOCYTE [4]: 0%
NEUTROPHIL [4]: 14%
NUCLEATED RED BLOOD CELLS [4]: 0 /100WBC
PLATELET COUNT [4]: 1326 x10E3/uL
ALANINE AMINOTRANSFERASE [4]: 51.5 u/L
ALBUMIN [4]: 4.3 G/DL
ALKALINE PHOSPHATASE [4]: 460.5 u/L
ASPARTATE AMINOTRANSFERASE [4]: 147 u/L
BLOOD UREA NITROGEN [4]: 19.5 mg/dL
CARBON DIOXIDE [4]: 26.5 mmol/L
CHLORIDE [4]: 105.5 MEQ/L
CHOLESTEROL [4]: 61.5 mg/dL
CREATINE PHOSPHOKINASE [4]: 173 u/L
CREATININE [4]: 0.2 mg/dL
GLUCOSE [4]: 161 mg/dL
LACTATE DEHYDROGENASE [4]: 131.5 u/L
LIPASE [4]: 7.5 u/L
PHOSPHORUS [4]: 12.6 mg/dL
POTASSIUM [4]: 5.85 MEQ/L
SODIUM [4]: 148.4 MEQ/L
TOTAL BILIRUBIN [4]: 0.15 mg/dL
TOTAL PROTEIN [4]: 6.15 G/DL
URIC ACID [4]: 1.35 mg/dL
ABSOLUTE BASOPHIL [5]: 0 CELLS/uL
ABSOLUTE EOSINOPHIL [5]: 0 CELLS/uL
ABSOLUTE LYMPHOCYTE [5]: 11188.5 CELLS/uL
ABSOLUTE MONOCYTE [5]: 305.5 CELLS/uL
ABSOLUTE SEGMENTED NEUTROPHIL [5]: 3356 CELLS/uL
BASOPHIL [5]: 0%
EOSINOPHIL [5]: 0%
ERYTHROCYTE COUNT [5]: 5.2 x10E6/uL
HEMATOCRIT [5]: 31.8%
HEMOGLOBIN [5]: 12.25 G/DL
LEUKOCYTE COUNT [5]: 14.85 x10E3/uL
LYMPHOCYTE [5]: 75%
MEAN CORPUSCULAR HEMOGLOBIN [5]: 23.65 pg
MEAN CORPUSCULAR HEMOGLOBIN CONCENTRATION [5]: 38.5 G/DL
MEAN CORPUSCULAR VOLUME [5]: 61.4 fL
MONOCYTE [5]: 2%
NEUTROPHIL [5]: 23%
NUCLEATED RED BLOOD CELLS [5]: 0 /100WBC
PLATELET COUNT [5]: 1215.5 x10E3/uL
ALANINE AMINOTRANSFERASE [5]: 64.5 u/L
ALBUMIN [5]: 4.05 G/DL
ALKALINE PHOSPHATASE [5]: 290 u/L
ASPARTATE AMINOTRANSFERASE [5]: 190 u/L
BLOOD UREA NITROGEN [5]: 19.5 mg/dL
CARBON DIOXIDE [5]: 24.5 mmol/L
CHLORIDE [5]: 105.5 MEQ/L
CHOLESTEROL [5]: 107 mg/dL
CREATINE PHOSPHOKINASE [5]: 336.5 u/L
CREATININE [5]: 0.22 mg/dL
GLUCOSE [5]: 149.5 mg/dL
LACTATE DEHYDROGENASE [5]: 446 u/L
LIPASE [5]: 8.5 u/L
PHOSPHORUS [5]: 13.45 mg/dL
POTASSIUM [5]: 6.05 MEQ/L
SODIUM [5]: 147.25 MEQ/L
TOTAL BILIRUBIN [5]: 0.2 mg/dL
TOTAL PROTEIN [5]: 6.15 G/DL
URIC ACID [5]: 0.95 mg/dL
